US10196390B2, “TYK2 inhibitors and uses thereof” (Nimbus Lakshmi, Inc., priority 2014, dated 2019)
Read-outs that look alike come from different tables or passages of the source.

Assays:
Tyk2-pSTAT4 = experiment: IL-12 induced pSTAT4 in human PBMC; type: cell-based; conditions: read-out: Tyk2-pSTAT4 EC50
Method: (§1) Human PBMC are isolated from buffy coat and are stored frozen for assays as needed. Cells for assay are thawed and resuspended in complete media containing serum, then cells are diluted to 1.67 E6 cells/ml so that 120 μl per well is 200,000 cells. 15 μl of compound or DMSO is added to the well at the desired concentrations and incubated at 1 hr at 37 C. 15 μl of stimulus (final concentration of 1.7 ng/mL IL-12) is added for 30 minutes prior to pSTAT4 and total STAT4 analysis using cell lysates prepared and analyzed by MSD reagents as per manufacturer protocol. The final DMSO concentration of compound in the assay is 0.1%.

JAK2 = JAK2 (Homo sapiens (Human), UniProt O60674); experiment: JAK2 activity inhibition assay (radioactive kinase assay / Caliper assay); type: biochemical; conditions: read-out: JAK2 Ki
JAK2, sequence (O60674 whole entry): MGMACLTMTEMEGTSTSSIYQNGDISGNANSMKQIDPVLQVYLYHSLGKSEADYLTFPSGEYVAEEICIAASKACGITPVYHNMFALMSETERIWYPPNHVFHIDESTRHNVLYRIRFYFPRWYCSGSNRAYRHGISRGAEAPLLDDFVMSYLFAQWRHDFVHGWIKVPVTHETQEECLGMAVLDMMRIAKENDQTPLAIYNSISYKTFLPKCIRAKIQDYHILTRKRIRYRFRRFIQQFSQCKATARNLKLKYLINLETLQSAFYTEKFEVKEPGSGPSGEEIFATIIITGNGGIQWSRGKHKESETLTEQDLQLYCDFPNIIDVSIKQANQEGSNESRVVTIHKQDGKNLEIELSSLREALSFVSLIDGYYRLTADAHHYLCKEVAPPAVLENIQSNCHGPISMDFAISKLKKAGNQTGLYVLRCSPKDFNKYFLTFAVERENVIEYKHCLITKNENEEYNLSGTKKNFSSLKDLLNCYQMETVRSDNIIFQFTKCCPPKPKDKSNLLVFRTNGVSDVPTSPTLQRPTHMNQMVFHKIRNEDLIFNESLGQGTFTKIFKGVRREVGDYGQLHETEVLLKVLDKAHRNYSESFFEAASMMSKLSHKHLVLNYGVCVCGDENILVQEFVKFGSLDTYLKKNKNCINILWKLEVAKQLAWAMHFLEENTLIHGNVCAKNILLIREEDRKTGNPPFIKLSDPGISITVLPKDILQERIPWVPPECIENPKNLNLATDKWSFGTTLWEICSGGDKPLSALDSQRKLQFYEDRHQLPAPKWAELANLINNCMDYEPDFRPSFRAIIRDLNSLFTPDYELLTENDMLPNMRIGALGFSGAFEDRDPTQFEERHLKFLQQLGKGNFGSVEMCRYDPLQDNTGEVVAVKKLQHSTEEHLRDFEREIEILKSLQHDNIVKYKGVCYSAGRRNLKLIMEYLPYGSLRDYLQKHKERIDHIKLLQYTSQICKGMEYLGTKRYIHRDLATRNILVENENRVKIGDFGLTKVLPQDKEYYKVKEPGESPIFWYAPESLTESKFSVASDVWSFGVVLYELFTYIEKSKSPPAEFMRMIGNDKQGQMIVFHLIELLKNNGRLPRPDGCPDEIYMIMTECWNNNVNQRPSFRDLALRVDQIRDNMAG
Outline: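 Mobility-shift (Caliper) read-out of phosphorylated peptide substrate. Compound diluted in 25 mM HEPES pH 7.5, 0.01% Brij-35, 0.01% Triton, 0.5 mM EGTA; enzyme added, then peptide plus ATP in 10 mM MgCl2. Incubated 25 min at 28° C, stopped with EDTA buffer.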

TYK2 = TYK2 (Homo sapiens (Human), UniProt P29597); experiment: Tyk2 activity inhibition assay (radioactive kinase assay / Caliper assay); type: biochemical
TYK2, sequence (P29597 whole entry): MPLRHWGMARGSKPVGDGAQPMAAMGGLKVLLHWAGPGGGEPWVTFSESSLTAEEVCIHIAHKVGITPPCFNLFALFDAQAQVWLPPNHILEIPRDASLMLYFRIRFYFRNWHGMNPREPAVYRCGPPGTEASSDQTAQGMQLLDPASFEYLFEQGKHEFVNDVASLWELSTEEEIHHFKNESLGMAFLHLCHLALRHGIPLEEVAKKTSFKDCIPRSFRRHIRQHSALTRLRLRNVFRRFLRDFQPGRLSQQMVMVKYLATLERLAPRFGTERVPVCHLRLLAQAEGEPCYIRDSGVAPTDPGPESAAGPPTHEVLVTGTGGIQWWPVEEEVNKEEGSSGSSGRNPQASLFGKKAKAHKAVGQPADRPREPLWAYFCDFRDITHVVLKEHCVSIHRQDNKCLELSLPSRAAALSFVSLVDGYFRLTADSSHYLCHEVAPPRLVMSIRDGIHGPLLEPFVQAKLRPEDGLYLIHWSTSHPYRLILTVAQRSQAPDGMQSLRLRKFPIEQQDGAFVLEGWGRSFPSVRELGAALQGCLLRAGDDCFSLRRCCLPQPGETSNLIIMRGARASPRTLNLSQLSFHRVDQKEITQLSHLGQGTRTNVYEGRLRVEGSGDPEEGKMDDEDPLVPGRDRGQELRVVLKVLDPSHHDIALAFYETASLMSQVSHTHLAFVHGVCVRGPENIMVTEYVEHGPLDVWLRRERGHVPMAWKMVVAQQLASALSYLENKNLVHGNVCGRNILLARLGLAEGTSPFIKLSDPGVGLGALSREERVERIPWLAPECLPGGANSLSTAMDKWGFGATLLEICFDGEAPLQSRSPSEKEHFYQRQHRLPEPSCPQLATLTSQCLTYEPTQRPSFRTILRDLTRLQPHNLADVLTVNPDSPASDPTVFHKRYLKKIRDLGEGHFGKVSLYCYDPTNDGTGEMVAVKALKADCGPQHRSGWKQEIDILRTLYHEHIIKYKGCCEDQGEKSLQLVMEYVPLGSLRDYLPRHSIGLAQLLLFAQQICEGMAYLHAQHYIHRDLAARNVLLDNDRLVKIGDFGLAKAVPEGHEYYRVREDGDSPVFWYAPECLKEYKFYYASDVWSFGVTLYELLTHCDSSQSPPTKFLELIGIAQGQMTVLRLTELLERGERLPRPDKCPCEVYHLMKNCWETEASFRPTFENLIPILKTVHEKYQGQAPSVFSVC
Outline: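 Radiometric format: TYK2 with peptide substrate (20 μM) and 33P-ATP at 10 μM in HEPES pH 7.5, 1% DMSO, 120 min at room temp, P81 paper capture. Caliper mobility-shift format: TYK2 9.75 nM, peptide 30 at 3 uM, ATP 16 uM (also 1 mM), 25 min at 28° C.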

JAK2-pSTAT5 = experiment: GM-CSF induced pSTAT5 in human PBMC; type: cell-based; conditions: read-out: JAK2-pSTAT5 EC50
Method: as §1, with “Cells for assay are thawed and resuspended in complete media containing serum, then cells are diluted to 1.67 E6 cells/ml so that 120 μl per well is 200,000 cells.” left out
Cells are prepared for analysis as in the above procedure and 15 μl of GM-CSF (final concentration 5 ng/mL) is added for 20 minutes prior to pSTAT5 and total STAT5 analysis using cell lysates prepared and analyzed by MSD reagents as per manufacturer protocol. The final DMSO concentration of compound in the assay is 0.1%.

[1] = IL-12 induced pSTAT4, human PBMC
[2] = GM-CSF induced pSTAT5, human PBMC

| Compound | EC50 (Tyk2-pSTAT4; [1]) [nM] | Ki (JAK2) [nM] | Ki (TYK2) [nM] | EC50 (JAK2-pSTAT5; [2]) [nM] | EC50 (Tyk2-pSTAT4; Homo sapiens, PBMC) [nM] | EC50 (JAK2-pSTAT5; Homo sapiens, PBMC) [nM] |
| --- | --- | --- | --- | --- | --- | --- |
| O=C1NCc2nc(-c3c(F)cccc3F)nc(Nc3ccc(Cn4ccnn4)cc3)c21 [Compound I-128, 4-((4-((1H-1,2,3-triazol-1-yl)methyl)phenyl)amino)-2-(2,6-difluorophenyl)-6,7-dihydro-5H-pyrrolo[3,4-d]pyrimidin-5-one] | – | 100 to 1000 | < 10 | – | < 2000 | > 20000 |
| O=C1NCc2nc(-c3c(F)cccc3F)cc(Nc3ccc(C(=O)N4CCOCC4)cc3)c21 [Compound I-231, 2-(2,6-difluorophenyl)-4-((4-(morpholine-4-carbonyl)-phenyl)amino)-6,7-dihydro-5H-pyrrolo[3,4-b]pyridin-5-one] | – | 10 to 100 | < 10 | 2000 to 20000 | < 2000 | – |
| CCNC(=O)Cc1ccc(Nc2cc(-c3c(F)cccc3F)nc3c2C(=O)NC3)nc1 [Compound I-88, 2-(6-((2-(2,6-difluorophenyl)-5-oxo-6,7-dihydro-5H-pyrrolo[3,4-b]pyridin-4-yl)amino)pyridin-3-yl)-N-ethylacetamide] | – | 100 to 1000 | 10 to 100 | – | < 2000 | < 2000 |
| O=C1NCc2nc(-c3c(F)cccc3Cl)nc(Nc3ccc([C@H]4CCNC4=O)cc3)c21 [Compound I-114, (R)-2-(2-chloro-6-fluorophenyl)-4-((4-(2-oxopyrrolidin-3-yl)phenyl)amino)-6,7-dihydro-5H-pyrrolo[3,4-d]pyrimidin-5-one] | < 2000 | 100 to 1000 | < 10 | 2000 to 20000 | – | – |
| C[C@@H]1COC[C@@H](C)N1c1ccc(Nc2cc(-c3c(F)cccc3F)nc3c2C(=O)NC3)nc1 [Compound I-263, 2-(2,6-difluorophenyl)-4-((5-((3R,5R)-3,5-dimethylmorpholino)pyridin-2-yl)amino)-6,7-dihydro-5H-pyrrolo[3,4-b]pyridin-5-one] | < 2000 | < 10 | < 10 | < 2000 | – | – |
| O=C1NCc2nc(-c3c(F)cccc3F)cc(Nc3ccc(N4CCN(CCC(F)(F)F)CC4)cn3)c21 [Compound I-262, 2-(2,6-difluorophenyl)-4-((5-(4-(3,3,3-trifluoropropyl)piperazin-1-yl)pyridin-2-yl)amino)-6,7-dihydro-5H-pyrrolo[3,4-b]pyridin-5-one] | < 2000 | 10 to 100 | – | < 2000 | – | – |
| O=C1NCc2nc(-c3c(F)cccc3F)cc(Nc3ccc(N4CCOCC4)nc3)c21 [Compound I-238, 2-(2,6-difluorophenyl)-4-((6-morpholinopyridin-3-yl)amino)-6,7-dihydro-5H-pyrrolo[3,4-b]pyridin-5-one] | < 2000 | 100 to 1000 | – | > 20000 | – | – |
| CCNC(=O)c1ccc(Nc2nc(-c3c(F)cccc3F)nc3c2C(=O)NC3)cc1 [Compound I-195, 4-((2-(2,6-difluorophenyl)-5-oxo-6,7-dihydro-5H-pyrrolo[3,4-d]pyrimidin-4-yl)amino)-N-ethylbenzamide] | – | 100 to 1000 | – | > 20000 | < 2000 | – |
| CC1(O)CN(c2ccc(Nc3cc(-c4c(F)cccc4F)nc4c3C(=O)NC4)nc2)C1 [Compound I-228, 2-(2,6-difluorophenyl)-4-((5-(3-hydroxy-3-methylazetidin-1-yl)pyridin-2-yl)amino)-6,7-dihydro-5H-pyrrolo[3,4-b]pyridin-5-one] | – | 10 to 100 | – | 2000 to 20000 | < 2000 | – |
| CCNC(=O)c1ccc(Nc2cc(-c3c(F)cccc3F)nc3c2C(=O)NC3)cn1 [Compound I-260, 5-((2-(2,6-difluorophenyl)-5-oxo-6,7-dihydro-5H-pyrrolo[3,4-b]pyridin-4-yl)amino)-N-ethylpicolinamide] | < 2000 | 100 to 1000 | – | > 20000 | – | – |

Now from value to molecule, other results behind:

| EC50 (Tyk2-pSTAT4; [1]) [nM] | Ki (JAK2) [nM] | Ki (TYK2) [nM] | EC50 (JAK2-pSTAT5; [2]) [nM] | Compound | EC50 (Tyk2-pSTAT4; Homo sapiens, PBMC) [nM] | EC50 (JAK2-pSTAT5; Homo sapiens, PBMC) [nM] |
| --- | --- | --- | --- | --- | --- | --- |
| < 2000 | 100 to 1000 | < 10 | > 20000 | O=C(Cc1ccc(Nc2nc(-c3c(F)cccc3F)nc3c2C(=O)NC3)cc1)NC1CCOCC1 [Compound I-65, 2-(4-((2-(2,6-difluorophenyl)-5-oxo-6,7-dihydro-5H-pyrrolo[3,4-d]pyrimidin-4-yl)amino)phenyl)-N-(tetrahydro-2H-pyran-4-yl)acetamide] | – | – |
| < 2000 | 100 to 1000 | < 10 | 2000 to 20000 | CC(C)(O)CN1CCC(c2ccc(Nc3nc(-c4c(F)cccc4F)nc4c3C(=O)NC4)cc2)C1=O (stereo not drawn) [Compound I-161, 2-(2,6-difluorophenyl)-4-((4-(1-(2-hydroxy-2-methylpropyl)-2-oxopyrrolidin-3-yl)phenyl)amino)-6,7-dihydro-5H-pyrrolo[3,4-d]pyrimidin-5-one] | – | – |
| < 2000 | 10 to 100 | < 10 | 2000 to 20000 | O=C(NCC(F)(F)F)c1ccc(Nc2cc(-c3c(F)cccc3F)nc3c2C(=O)NC3)nc1 [Compound I-140, 6-((2-(2,6-difluorophenyl)-5-oxo-6,7-dihydro-5H-pyrrolo[3,4-b]pyridin-4-yl)amino)-N-(2,2,2-trifluoroethyl)nicotinamide] | – | – |
| < 2000 | 10 to 100 | < 10 | 2000 to 20000 | COc1ccc(Nc2cc(-c3c(F)cccc3F)nc3c2C(=O)NC3)nc1OC [Compound I-170, 2-(2,6-difluorophenyl)-4-((5,6-dimethoxypyridin-2-yl)amino)-6,7-dihydro-5H-pyrrolo[3,4-b]pyridin-5-one] | – | – |
| < 2000 | 10 to 100 | – | 2000 to 20000 | CC[C@@]1(c2ccc(Nc3nc(-c4c(F)cccc4F)nc4c3C(=O)NC4)cc2)CCNC1=O [Compound I-176, (S)-2-(2,6-difluorophenyl)-4-((4-(3-ethyl-2-oxopyrrolidin-3-yl)phenyl)amino)-6,7-dihydro-5H-pyrrolo[3,4-d]pyrimidin-5-one] | – | – |
| < 2000 | 10 to 100 | – | 2000 to 20000 | CC(C)N1CCN(C(=O)c2ccc(Nc3cc(-c4c(F)cccc4F)nc4c3C(=O)NC4)cc2)CC1 [Compound I-243, 2-(2,6-difluorophenyl)-4-((4-(4-isopropylpiperazine-1-carbo-nyl)phenyl)amino)-6,7-dihydro-5H-pyrrolo[3,4-b]pyridin-5-one] | – | – |
| < 2000 | 10 to 100 | – | 2000 to 20000 | O=C1NCc2nc(-c3c(F)cccc3F)cc(Nc3ccc(C(=O)N4CCCCC4)cc3)c21 [Compound I-257, 2-(2,6-difluorophenyl)-4-((4-(piperidine-1-carbonyl)phenyl)-amino)-6,7-dihydro-5H-pyrrolo[3,4-b]pyridin-5-one] | – | – |
| < 2000 | 10 to 100 | – | 2000 to 20000 | CC(C)N1CCN(c2ccc(Nc3cc(-c4c(F)cccc4F)nc4c3C(=O)NC4)nc2)C(=O)C1 [Compound I-242, 2-(2,6-difluorophenyl)-4-((5-(4-isopropyl-2-oxopiperazin-1-yl)pyridin-2-yl)amino)-6,7-dihydro-5H-pyrrolo[3,4-b]pyridin-5-one] | – | – |
| < 2000 | 100 to 1000 | – | > 20000 | CC(C)Oc1ccc(Nc2nc(-c3c(F)cccc3F)nc3c2C(=O)NC3)cc1 [Compound I-181, 2-(2,6-difluorophenyl)-4-((4-isopropoxyphenyl)amino)-6,7-dihydro-5H-pyrrolo[3,4-d]pyrimidin-5-one] | – | – |
| < 2000 | 10 to 100 | – | < 2000 | O=C1NCc2nc(-c3c(F)cccc3F)cc(Nc3ccc(N4CCOCC4=O)cn3)c21 [Compound I-248, 4-(6-((2-(2,6-difluorophenyl)-5-oxo-6,7-dihydro-5H-pyrrolo[3,4-b]pyridin-4-yl)amino)pyridin-3-yl)morpholin-3-one] | – | – |
| < 2000 | 10 to 100 | – | 2000 to 20000 | C[C@@H]1CCC[C@@H](C)N1c1ccc(Nc2cc(-c3c(F)cccc3F)nc3c2C(=O)NC3)nc1 [Compound I-265, 2-(2,6-difluorophenyl)-4-((5-((2R,6R)-2,6-dimethylpiperidin-1-yl)pyridin-2-yl)amino)-6,7-dihydro-5H-pyrrolo[3,4-b]pyridin-5-one] | – | – |
| < 2000 | 10 to 100 | – | < 2000 | CC1(C)OCCN(c2ccc(Nc3cc(-c4c(F)cccc4F)nc4c3C(=O)NC4)nc2)C1=O [Compound I-273, 4-(6-((2-(2,6-difluorophenyl)-5-oxo-6,7-dihydro-5H-pyrrolo[3,4-b]pyridin-4-yl)amino)pyridin-3-yl)-2,2-dimethylmorpholin-3-one] | – | – |
